Values of other authors, collected in patent US11304990B2, “Use of known compounds—intracellular infections” (ISR IMMUNE SYSTEM REGULATION HOLDING AB (PUBL), priority 2017, dated 2022).

How the values were obtained:
[1] = test system: pituitary type I GnRH receptors
[2] = test system: CD4 T-lymphocyte; details: diabetes-prone BB rats exhibiting an AIDS-like lymphocyte profile

pyroGlu-His-Trp-Ser-Tyr-Gly-Leu-Arg-Pro-Gly-NH2 [GnRH I, decapeptide gonadotropin releasing hormone]
fold higher affinity, pituitary vs breast cancer cell receptors ([1]; central pituitary binding compared with breast cancer cells): 1000 fold
Kd ([1]; central pituitary binding, read-out: binding affinity (Kd)): 4.8 nM
CD4 T-lymphocyte numbers [2]: increased
